Literature values in patent publication US9708259B2 (Hoffmann-La Roche Inc., priority 2013, dated 2017).

How the values were obtained:
APP processing = settings: cited from earlier work
[1] = cited from earlier work

Cc1cc(NC(=O)CS(=O)(=O)c2cn(Cc3cc(Br)ccc3F)c3ccccc23)no1 [ML169]
non-amyloidogenic APP processing (APP processing): promote non-amyloidogenic APP processing

CCCCCCOc1nsnc1C1=CCCN(C)C1 [Xanomeline]
cognitive scores and psychotic-like behaviors in patients with Alzheimer's disease ([1]; clinical studies, patients with Alzheimer's disease (AD)): improved cognitive scores and reduced psychotic-like behaviors
efficacy on symptoms in schizophrenic patients ([1]; clinical studies, schizophrenic patients): robust efficacy on positive, negative and cognitive symptoms
adverse effects (sweating, salivation, gastrointestinal distress, bradycardia) ([1]; clinical, attributed to insufficient M1 subtype selectivity): always associated with adverse effects
